Test results as given in patent publication US8557866B2, “Isomeric mixtures of dinitro-octylphenyl esters and synergistic fungicidal mixtures therefrom” (Dow AgroSciences, LLC., priority 2007, dated 2013).

Legend:
[1] = system: Venturia inaequalis (VENTIN); experiment: High volume spray greenhouse test, 1 day protectant, apple scab; format: in vivo, Venturia inaequalis on apple
[2] = system: wheat powdery mildew (ERYSGT); experiment: Synergy test (Colby), 2 day curative glasshouse studies against wheat powdery mildew; format: in vivo, Erysiphe graminis f.sp tritici on wheat; details: alone, ERYSGT 2 day curative
[3] = system: Erysiphe cichoracearum (ERYSCI); experiment: High volume spray greenhouse test, 1 day protectant, cucumber powdery mildew; format: in vivo, Erysiphe cichoracearum on cucumbers; details: rate 200 ppm
Experimental: (§1) The composition of Example 1 was evaluated for fungicidal efficacy in a greenhouse on 9 diseases caused by plant pathogenic fungi (TABLE II). The plant cultivars used in this study were Ugni Blanc (grape), Bovowinka (crab apple), HH88 (sugar beet), M-9 (rice) and Yuma (wheat). Broad leaf plants and rice were grown in a soil-less peat-based potting mixture (Metromix), and wheat was grown in a 50/50 mix of mineral soil and Metromix. The wheat was grown at a temperature of 20° C. and all the other plants were grown at 25° C. Apple seeds were soaked in water, incubated for a short time in 200 ppm solution of benlate and washed again with water. The moist seeds were stored in a closed container at 7° C. (45° F.) and washed once a week with water until the radical had emerged 3 mm (approximately 30 days). The seeds were then planted and seedlings with 4-6 leaves were typically ready for inoculation 3 weeks later.
(§2) The composition of Example 1 was applied to seedlings at 100, 50, 25, and 12.5 ppm using a high volume spray application. The composition was formulated in water and serial dilutions made and then brought up to volume by adding water solution. […] Plants were evaluated for percent disease incidence 7-14 days after inoculation and the average percent disease control determined. […]

[4] = system: Puccinia recondita (PUCCRT); experiment: High volume spray greenhouse test, 1 day protectant, wheat brown rust; format: in vivo, Puccinia recondita on wheat
Experimental: as §1
The composition of Example 1 was applied to seedlings at 100, 50, 25, and 12.5 ppm using a high volume spray application. The composition was formulated in water and serial dilutions made and then brought up to volume by adding water solution. Plants were sprayed to run off with 15 mL of solution on a turn-table sprayer with two opposing 4JAUPM air atomization nozzles (Spraying Systems) at a pressure of 138 kPa. Volume of spray solution on a per hectare basis is approximately 4000 L/ha. Plants were inoculated with the pathogens 1 day after application of the composition of Example 1 (1 day protectant test), incubated in a dew chamber for 24 hours with 100 percent relative humidity and then moved to an appropriate environment for disease expression for the duration of the test. Three replicate pots were sprayed for each pathogen/composition combination. Plants were evaluated for percent disease incidence 7-14 days after inoculation and the average percent disease control determined.
(§3) Plants were inoculated with various pathogens 1 day after application of the composition of EXAMPLES 1, 4-5 (protectant tests) and 2 days before application for EXAMPLES 6-7 (curative tests). For all wheat trials, compositions were applied at growth stage 1.2, when the second leaf was expanded to ½ of its final size (12 days after seeds were first watered). Information on the growth stages of other plant species at the time composition application and on the propagation and inoculation procedures associated with each pathogen is given below.
(§4) PUCCRT: Spores of the obligate pathogen PUCCRT were collected from infected plants with a vacuum apparatus and stored at 4° C. Approximately 0.1 g of fresh spores (stored at 4° C. for less than 30 days) was mixed with several drops of Tween 20. The thick spore paste was diluted to 100 ml with water and sprayed to run-off on wheat seed seedlings. Plants inoculated with PUCCRT were kept in a 20° C. dew chamber overnight and then transferred to a 20° C. growth chamber where symptoms developed in 8-9 days.

PYRIOR = format: in vivo, PYRIOR on rice; details: rate 200 ppm, high volume test
[5] = system: Erysiphe graminis f.sp tritici (ERYSGT); experiment: High volume spray greenhouse test, 1 day protectant, wheat powdery mildew; format: in vivo, Erysiphe graminis f.sp tritici on wheat
Experimental: as §1, §2

[6] = system: Uncinula necator (UNCINE); experiment: High volume spray greenhouse test, 1 day protectant, grape powdery mildew; format: in vivo, Uncinula necator on grapes
[7] = system: wheat brown rust (PUCCRT); experiment: Synergy test (Colby), 1 day protectant glasshouse studies against wheat brown rust; format: in vivo, Puccinia recondita on wheat; details: alone, PUCCRT 1 day protectant
Source text: as §3, §4
A synergistic effect exists whenever the action of an active ingredient combination is greater than the sum of the action of the individual components.
The action to be expected E for a given active ingredient combination obeys the so-called COLBY formula and can be calculated as follows (COLBY, S. R. “Calculating synergistic and antagonistic responses of herbicide combination”. Weeds, Vol. 15, pages 20-22; 1967)
X=percent action by active ingredient I using p ppm of active ingredient
Y=percent action by active ingredient II using q ppm of active ingredient
According to Colby the expected additive action of active ingredients I+II using p+q ppm of active ingredients is E=X+Y−(X*Y)/100
If the action actual observed (O) is greater than the expected action (E), then the action of the combination is super additive, that is, there is a synergistic effect.
Protectant activity of combinations against wheat brown rust (PUCCRT).
1 day protectant glasshouse studies.

## OC(c1ccc(Cl)cc1)(c1cncnc1)c1ccccc1Cl (centres unmarked) [Fenarimol, fenarimol, reference compound]
[1]; rate 25 ppm
  Percent Disease Control VENTIN: *** (*** is 80-100 percent control of disease)

## CCCN(CC)CC1COC2(CCC(C(C)(C)C)CC2)O1 (centres unmarked) [Spiroxamine, spiroxamine]
[2]; 12.50 ppm
  Observed Percent CONTROL: 15.00%

## C/C=C/C(=O)Oc1c(C(C)CCCCCC)cc([N+](=O)[O-])cc1[N+](=O)[O-] (centres unmarked) [Ex. 1, 2,4-dinitro-6-(1-methylheptyl)phenyl crotonate]
[3]
  Percent disease control: ** (** is 50-79 percent control of disease)
[4]; PUCCRT, rate 200 ppm, high volume test
  Percent disease control: *** (*** is 80-100 percent control of disease)
[4]; rate 12.5 ppm
  Percent Disease Control PUCCRT: * (* is 0-49 percent control of disease)
[4]; rate 25 ppm
  Percent Disease Control PUCCRT: * (* is 0-49 percent control of disease)
[4]; rate 50 ppm
  Percent Disease Control PUCCRT: ** (** is 50-79 percent control of disease)
[4]; rate 100 ppm
  Percent Disease Control PUCCRT: *** (*** is 80-100 percent control of disease)
PYRIOR
  Percent disease control: *** (*** is 80-100 percent control of disease)
[5]; rate 50 ppm
  Percent Disease Control ERYSGT: *** (*** is 80-100 percent control of disease)
[5]; rate 100 ppm
  Percent Disease Control ERYSGT: *** (*** is 80-100 percent control of disease)
[6]; rate 12.5 ppm
  Percent Disease Control UNCINE: *** (*** is 80-100 percent control of disease)
[6]; rate 25 ppm
  Percent Disease Control UNCINE: *** (*** is 80-100 percent control of disease)
[6]; rate 50 ppm
  Percent Disease Control UNCINE: *** (*** is 80-100 percent control of disease)
[6]; rate 100 ppm
  Percent Disease Control UNCINE: *** (*** is 80-100 percent control of disease)
[1]; rate 12.5 ppm
  Percent Disease Control VENTIN: ** (** is 50-79 percent control of disease)
[1]; rate 25 ppm
  Percent Disease Control VENTIN: ** (** is 50-79 percent control of disease)
[1]; rate 50 ppm
  Percent Disease Control VENTIN: ** (** is 50-79 percent control of disease)
[1]; rate 100 ppm
  Percent Disease Control VENTIN: *** (*** is 80-100 percent control of disease)
[7]; 12.50 ppm
  Observed Percent CONTROL: 0.00%
[7]; 25.00 ppm
  Observed Percent CONTROL: 11.76%
[7]; 50.00 ppm
  Observed Percent CONTROL: 33.33%
[7]; 75.00 ppm
  Observed Percent CONTROL: 68.63%
[2]; 75 ppm
  Observed Percent CONTROL: 23.00%

## CCCCC(C#N)(Cn1cncn1)c1ccc(Cl)cc1 (centres unmarked) [Myclobutanil, myclobutanil]
[7]; 3.13 ppm
  Observed Percent CONTROL: 0.00%
[7]; 6.25 ppm
  Observed Percent CONTROL: 27.45%
[7]; 12.50 ppm
  Observed Percent CONTROL: 74.51%
[7]; 18.75 ppm
  Observed Percent CONTROL: 84.31%

## CO/C=C(/C(=O)OC)c1ccccc1Oc1cc(Oc2ccccc2C#N)ncn1 [Azoxystrobin, azoxystrobin]
[6]; rate 25 ppm
  Percent Disease Control UNCINE: *** (*** is 80-100 percent control of disease)
[2]; 6.25 ppm
  Observed Percent CONTROL: 13.00%
[2]; 12.50 ppm
  Observed Percent CONTROL: 15.00%
[2]; 25 ppm
  Observed Percent CONTROL: 15%
[2]; 75 ppm
  Observed Percent CONTROL: 52%
[2]; 100 ppm
  Observed Percent CONTROL: 79%

## mancozeb
[7]; 25.00 ppm
  Observed Percent CONTROL: 0.00%
[7]; 50.00 ppm
  Observed Percent CONTROL: 5.88%
[7]; 100.00 ppm
  Observed Percent CONTROL: 58.82%
[7]; 200.00 ppm
  Observed Percent CONTROL: 88.24%
